According to patent US5191079A, “Quinolinecarboxylic acid derivatives” (priority 1990, dated 1993):
≈ marks a conversion by molar mass, not a printed value.

How the values were obtained:
[1] = tested on: Acinetobacter calcoaceticus Ac 54; test: MIC, Experiment 1; format: cell-based; conditions: AC54, A. calcoaceticus Ac 54, Gram -, read-out: Min. inhib. concentr. (MIC)
Method: (§1) The compounds of the present invention (B, E, G, H, M, N, O, P and Q) were each dissolved in dimethylsulfoxide to prepare a solution of 5000 μg/ml in concentration. The compounds of the present invention (I, J and K) and the known compound (Y) were each dissolved in sterilized distilled water to prepare a solution of 5000 μg/ml in concentration. Each solution was diluted with sterilized distilled water to prepare a standard solution with a concentration of each test compound: 1000 μg/ml. The test was carried out by a method as appointed by Japan Society of Chemotherapy [cf. Chemotherapy, 29, 76-79 (1981), TOKYO].
(§2) As to Streptococcus pneumoniae and Streptococcus pyogenes, Brain heart infusion broth (manufactured by DIFCO) was used as the medium for the preculture thereof, and a heart infusion agar medium containing 5% defibrinated horse blood (manufactured by Nissui Seiyaku K. K., Japan) was used as the medium for the measurement of minimum inhibitory concentration (MIC). As to other microorganisms, a sensitivity test broth (manufactured by Nissui Seiyaku K. K.) was used as the medium for the preculture thereof, and a sensitivity test agar medium (manufactured by Nissui Seiyaku K. K.) was used as the medium for the measurement of MIC.

[2] = tested on: Bacillus cereus IAM 1029; test: MIC, Experiment 1; format: cell-based; conditions: IAM1029, B. cereus IAM 1029, Gram +, read-out: Min. inhib. concentr. (MIC)
Method: as §1, §2

[3] = tested on: Bacillus subtilis ATCC 6633; test: MIC, Experiment 1; format: cell-based; conditions: ATCC6633, B. subtilis ATCC 6633, Gram +, read-out: Min. inhib. concentr. (MIC)
Method: as §1, §2

[4] = tested on: Enterobacter cloacae 963; test: MIC, Experiment 1; format: cell-based; conditions: E. cloacae 963, Gram -, read-out: Min. inhib. concentr. (MIC)
Method: as §1, §2

[5] = tested on: Escherichia coli NIHJ JC-2; test: MIC, Experiment 1; format: cell-based; conditions: NIHJJC2, E. coli NIHJ JC-2, Gram -, read-out: Min. inhib. concentr. (MIC)
Method: as §1, §2

[6] = tested on: Klebsiella pneumoniae PCI-602; test: MIC, Experiment 1; format: cell-based; conditions: PCI602, K. pneumoniae PCI-602, Gram -, read-out: Min. inhib. concentr. (MIC)
Method: as §1, §2

[7] = tested on: Micrococcus luteus ATCC 9341; test: MIC, Experiment 1; format: cell-based; conditions: ATCC9341, M. luteus ATCC 9341, Gram +, read-out: Min. inhib. concentr. (MIC)
Method: as §1, §2

[8] = tested on: Proteus mirabilis IFO 3849; test: MIC, Experiment 1; format: cell-based; conditions: IFO3849, P. mirabilis IFO 3849, Gram -, read-out: Min. inhib. concentr. (MIC)
Method: as §1, §2

[9] = tested on: Pseudomonas aeruginosa NCTC 10490; test: MIC, Experiment 1; format: cell-based; conditions: NCTC10490, P. aeruginosa NCTC 10490, Gram -, read-out: Min. inhib. concentr. (MIC)
Method: as §1, §2

[10] = tested on: Staphylococcus aureus ATCC 9144; test: MIC, Experiment 1; format: cell-based; conditions: ATCC9144, S. aureus ATCC 9144, Gram +, read-out: Min. inhib. concentr. (MIC)
Method: as §1, §2

[11] = tested on: Staphylococcus aureus Cowan I (IID 975); test: MIC, Experiment 1; format: cell-based; conditions: IID975, S. aureus Cowan I (IID 975), Gram +, read-out: Min. inhib. concentr. (MIC)
Method: as §1, §2

[12] = tested on: Staphylococcus aureus FDA 209P JC-1; test: MIC, Experiment 1; format: cell-based; conditions: FDA209P, S. aureus FDA 209P JC-1, Gram +, read-out: Min. inhib. concentr. (MIC)
Method: as §1, §2

[13] = tested on: Staphylococcus aureus FDA 243; test: MIC, Experiment 1; format: cell-based; conditions: FDA243, S. aureus FDA 243, Gram +, read-out: Min. inhib. concentr. (MIC)
Method: as §1, §2

[14] = tested on: Staphylococcus aureus IID 803; test: MIC, Experiment 1; format: cell-based; conditions: IID803, S. aureus IID 803, Gram +, read-out: Min. inhib. concentr. (MIC)
Method: as §1, §2

[15] = tested on: Staphylococcus aureus Terajima (IID 670); test: MIC, Experiment 1; format: cell-based; conditions: IID670, S. aureus Terajima (IID 670), Gram +, read-out: Min. inhib. concentr. (MIC)
Method: as §1, §2

[16] = tested on: clinically isolated Enterococcus faecalis; test: In vitro antibacterial activity against clinical isolates, Experiment 2; format: cell-based
Method: (§3) The above solutions were then diluted with sterilized distilled water to prepare a standard solution with a concentration of the test compound: 1000 μg/ml each.
(§4) For the preculture of each microorganism, there was used as the medium a sensitivity test broth (manufactured by Nissui Seiyaku K. K., Japan), and for the measurement of MIC, there was used a sensitivity test agar medium (manufactured by Nissui Seiyaku K. K.).
(§5) The clinically isolates used above were isolated from Nov. 1988 to Jun. 1989 and were obtained from Research Section, Tokyo Clinical Research Center.

[17] = tested on: clinically isolated Enterococcus faecium; test: as above; format: cell-based
Method: as §3, §4, §5

[18] = tested on: clinically isolated Staphylococcus aureus; test: as above; format: cell-based
Method: as §3, §4, §5

[19] = tested on: clinically isolated Staphylococcus epidermidis; test: as above; format: cell-based; conditions: Staphylococcus epidermidis
Method: as §3, §4, §5

[20] = tested on: Staphylococcus aureus IID 803; test: Effect on treatment of general infectious disease (systemic infection in mice), Experiment 3; format: in vivo, Staphylococcus aureus; ddY male mice; conditions: Staphylococcus aureus, IID803, 168 h; oral, 1 h after i.p. infection, mice, survival after one week, average of several tests; read-out: 50% effective dose (ED50)
Method: Staphylococcus aureus IID 803
The test microorganism was subjected to standing culture in Brain heart infusion broth (manufactured by DIFCO) at 37° C. for 16 to 18 hours. The culture was then diluted with PBS (Dulbecco's phosphate buffered saline) to adjust the concentration of bacteria to 4×10^7 -8×10^7 CFU/ml. The mixture was mixed with an equivalent amount of 10% (w/v) Mucin (BACTO MUCIN BACTERIOLOGICAL, manufactured by Difco Co.) to prepare a bacterial suspension. The thus prepared bacterial suspension (0.5 ml each) was intraperitoneally inoculated to ddY male mice (5 weeks age, weighing 24-27 g, 5 mice in each group), to infect the animals, by which systemic infectious model was prepared.
The mice were daily observed for one week, and from the survival number of mice after one week, the 50% effective dose (ED50) was calculated by Weil method. This test was repeated several times and the average of ED50 was calculated.

Question: Which MIC [1] does the source give for `CC1COc2c(N3CCN(C)CC3)c(F)cc3c(=O)c(C(=O)O)cn1c23` (stereo not drawn) [Compound (X), 9-Fluoro-3-methyl-10-(4-methyl-1-piperazinyl)-7-oxo-2,3-dihydro-7H-pyrido[1,2,3-de][1,4]benzoxazine-6-carboxylic acid, reference compound] here?
Answer: Its MIC is 0.39 µg/mL (≈ 1.08 µM).

Question: What about the MIC [2] of the same compound?
Answer: The MIC was 0.39 µg/mL (≈ 1.08 µM).

Question: What about the MIC [3] of the same compound?
Answer: The MIC was 0.1 µg/mL (≈ 0.277 µM).

Question: What about the MIC [4] of the same compound?
Answer: Its MIC is 0.2 µg/mL (≈ 0.553 µM).

Question: What about the MIC [5] of the same compound?
Answer: Its MIC is 0.1 µg/mL (≈ 0.277 µM).

Question: And the MIC [6]?
Answer: The MIC was 0.05 µg/mL (≈ 0.138 µM).

Question: And the MIC [7]?
Answer: The MIC was 3.13 µg/mL (≈ 8.66 µM).

Question: And the MIC [8]?
Answer: Its MIC is 0.39 µg/mL (≈ 1.08 µM).

Question: And the MIC [9]?
Answer: The MIC was 1.56 µg/mL (≈ 4.32 µM).

Question: What about the MIC [10] of the same compound?
Answer: Its MIC is 0.39 µg/mL (≈ 1.08 µM).

Question: And the MIC [11]?
Answer: Its MIC is 0.39 µg/mL (≈ 1.08 µM).

Question: What about the MIC [12] of the same compound?
Answer: The MIC was 0.39 µg/mL (≈ 1.08 µM).

Question: And the MIC [13]?
Answer: The MIC was 0.39 µg/mL (≈ 1.08 µM).

Question: What about the MIC [14] of the same compound?
Answer: The MIC was 0.39 µg/mL (≈ 1.08 µM).

Question: And the MIC [15]?
Answer: Its MIC is 0.39 µg/mL (≈ 1.08 µM).

Question: And the MIC50 [16]?
Answer: The MIC50 was 3.13 µg/mL (≈ 8.66 µM).

Question: What about the MIC ([16]; 25 clinical strains E. faecalis) of the same compound?
Answer: The MIC was 1.56 to 100 µg/mL (≈ 4.32 to 277 µM).

Question: What about the MIC90 ([16]; 25 clinical strains E. faecalis, 90% of strains, read-out: MIC90) of the same compound?
Answer: Its MIC90 is 50 µg/mL (≈ 138 µM).

Question: What about the MIC90 [17] of the same compound?
Answer: Its MIC90 is 100 µg/mL (≈ 277 µM).

Question: And the MIC50 ([17]; 25 clinical strains E. faecium, 50% of strains, read-out: MIC50)?
Answer: The MIC50 was 25 µg/mL (≈ 69.2 µM).

Question: What about the MIC50 [18] of the same compound?
Answer: Its MIC50 is 1.56 µg/mL (≈ 4.32 µM).

Question: And the MIC90 [18]?
Answer: Its MIC90 is 25 µg/mL (≈ 69.2 µM).

Question: What about the MIC ([18]; 25 clinical strains S. aureus incl. 16 methicillin resistant) of the same compound?
Answer: Its MIC is 0.39 to 50 µg/mL (≈ 1.08 to 138 µM).

Question: And the MIC90 [19]?
Answer: Its MIC90 is 25 µg/mL (≈ 69.2 µM).

Question: And the MIC ([19]; 25 clinical strains S. epidermidis)?
Answer: Its MIC is 0.2 to 50 µg/mL (≈ 0.553 to 138 µM).

Question: And the MIC50 ([19]; 25 clinical strains S. epidermidis, 50% of strains, read-out: MIC50)?
Answer: The MIC50 was 0.78 µg/mL (≈ 2.16 µM).

Question: And the ED50 [20]?
Answer: The ED50 was 11.4 mg/kg.
